Literature values, collected in publication PMC6151732, “A New Noncanonical Anionic Peptide That Translocates a Cellular Blood–Brain Barrier Model” (Molecules : A Journal of Synthetic Chemistry and Natural …, 2017).

Tested on: brain
Procedure: Dengue virus type-2 capsid (DEN2C) protein-derived membrane-active peptides have been thoroughly studied by our group. […] An additional study was performed using the four α-helical domains of the DEN2C protein (α1, α2, α3 and α4) to identify trans-BBB peptides. […] PepH3, a hydrophobic peptide, is able to transcytose across the cell, while other peptides accumulate inside the endothelial membrane ...

AGILKRW [PepH3]
Brain uptake: high brain uptake
